Data reported in PMC5983544, “Muscarinic M5 receptors modulate ethanol seeking in rats” (Neuropsychopharmacology, 2018).

Key:
[1] = tested on: ethanol-preferring (iP) rats; assay: Ethanol self-administration after bilateral microinjection into dorsomedial (DM) striatum; assay type: in vivo, rat; settings: intra-DM striatum
Text: (§1) Male iP rats (n = 14) were trained to self-administer 10% (v/v) ethanol via lever presses under FR3 operant conditions for approximately 12 weeks, in the presence of a 1-s light conditioned stimulus (CS+) occurring when the ethanol solution was delivered and an olfactory cue (S+ cue; one drop of vanilla essence, placed directly below the ethanol-paired (active) lever), as previously described, followed by surgery and testing. […] Rats were then given 7 days of ethanol self-administration before receiving the alternate treatment in a counterbalanced manner. For full details refer to Supplementary material.
(§2) Microinjections were performed as previously described; for full details see Supplementary material.
There was a main effect of lever (F(1, 15) = 59.4, P < 0.0001) but no effect of treatment (F(1, 15) = 0.22, P = 0.65) (Fig. 5b).

[2] = tested on: ethanol-preferring (iP) rats; assay: Ethanol self-administration after bilateral microinjection into dorsolateral (DL) striatum; assay type: in vivo, rat; settings: intra-DL striatum
Text: as §1, §2

SMILES	responding for ethanol vs vehicle ([1]; 165 pmol/hemisphere, P = 0.99)	responding for ethanol vs vehicle ([2]; 165 pmol/hemisphere, P = 0.82)	ethanol responding vs vehicle ([1]; 5.53 nmol/hemisphere)	ethanol responding vs vehicle ([2]; 5.53 nmol/side, P = 0.0003)	responding for water vs vehicle ([2]; 5.53 nmol/side, P = 0.96)
CCN(Cc1ccccc1C(F)(F)F)C(=O)C1CCN(S(=O)(=O)c2ccc3[nH]ncc3c2)CC1 [ML380, 1-((1H-indazol-5-yl)sulfoneyl)-N-ethyl-N-(2-(trifluoromethyl)benzyl)piperidine-4-carboxamide]	no effect	no effect	–	–	–
c1cnc2cc3c(cc2n1)[C@@H]1CNC[C@H]3C1 [varenicline]	–	–	did not affect ethanol responding	significantly reduced ethanol responding	no difference
